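Each compound was tested at five concentrations against cells in 96-well plates for 48 hours. Here, GI50 denotes the concentration required for 50% inhibition of growth. TGI is the concentration that stops growth completely.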
Assays:
Assay in all cases: inhibition of tumour cell growth, NCI panel, 48 h
EKVX NSCLC = test system: EKVX NSCLC
HT29 colon = test system: HT29 colon
MALME-3M melanoma = test system: MALME-3M melanoma
OVCAR-4 ovarian = test system: OVCAR-4 ovarian
OVCAR-8 ovarian = test system: OVCAR-8 ovarian
PC-3 prostate = test system: PC-3 prostate
RXF 393 renal = test system: RXF 393 renal
SF-268 CNS = test system: SF-268 CNS
SK-MEL-28 melanoma = test system: SK-MEL-28 melanoma
SNB-19 CNS = test system: SNB-19 CNS

SMILES | GI50 (EKVX NSCLC) | TGI (EKVX NSCLC) | GI50 (HT29 colon) | TGI (HT29 colon) | GI50 (MALME-3M melanoma) | TGI (MALME-3M melanoma) | GI50 (OVCAR-4 ovarian) | TGI (OVCAR-4 ovarian) | GI50 (OVCAR-8 ovarian) | TGI (OVCAR-8 ovarian) | GI50 (PC-3 prostate) | TGI (PC-3 prostate) | GI50 (RXF 393 renal) | TGI (RXF 393 renal) | GI50 (SF-268 CNS) | TGI (SF-268 CNS) | GI50 (SK-MEL-28 melanoma) | TGI (SK-MEL-28 melanoma) | GI50 (SNB-19 CNS) | TGI (SNB-19 CNS)
C=CC(=O)N1CCN(c2nc(OC[C@@H]3CCCN3C)nc3c(F)c(-c4nc(N)cc(C)c4C(F)(F)F)c(Cl)cc23)[C@@H](C)C1 | 1.98 µM | 4.8 µM | 2.61 µM | 9.8 µM | 1.86 µM | 3.37 µM | 1.59 µM | 3 µM | 1.64 µM | 3.09 µM | 2.91 µM | 12 µM | 1.07 µM | 2.5 µM | 1.59 µM | 3.19 µM | 1.75 µM | 3.21 µM | 3.44 µM | 12.8 µM
CCOC(=O)c1nc2sc(Cl)cn2c1/C=N/N=C(N)N | 26.1 µM | 61.6 µM | 28.7 µM | > 86.4 µM | 17.8 µM | 37.9 µM | 30.3 µM | > 100 µM | 26.9 µM | > 53.8 µM | 24.4 µM | > 56.8 µM | 18.8 µM | > 70.2 µM | 32 µM | > 100 µM | 18.2 µM | 51 µM | 30 µM | > 100 µM
O=C1/C(=C/c2ccccc2)CN(C(=O)/C=C/c2ccccc2)C/C1=C\c1ccccc1 | – | 50.1 µM | – | 11.8 µM | – | 34.1 µM | – | 24.7 µM | – | 9.78 µM | – | 4.33 µM | – | 30.4 µM | – | 38.7 µM | – | 21.4 µM | – | 25.9 µM
CC(=O)OC1CCC2(C)C(=CCC3C2CCC2(C)C3CC3OC4(CCC(C)CN4)C(C)C32)C1 (stereo not given) | – | > 100 µM | – | > 100 µM | – | > 100 µM | – | > 100 µM | – | > 100 µM | – | > 100 µM | – | > 100 µM | – | > 100 µM | – | > 100 µM | – | > 100 µM
COC(=O)c1cc2c3cc(Cl)ccc3[nH]c2c2ncccc12 | > 100 µM | > 100 µM | > 100 µM | > 100 µM | > 100 µM | > 100 µM | > 100 µM | > 100 µM | > 100 µM | > 100 µM | > 100 µM | > 100 µM | > 100 µM | > 100 µM | > 100 µM | > 100 µM | > 100 µM | > 100 µM | > 100 µM | > 100 µM
CN(C)Cc1nsc(N(C)C)n1 | – | > 100 µM | – | > 100 µM | – | > 100 µM | – | > 100 µM | – | > 100 µM | – | > 100 µM | – | > 100 µM | – | > 100 µM | – | > 100 µM | – | > 100 µM

From PubChem BioAssay (NCI)
